According to the NIST ThermoML archive (doi:10.1021/je8007588):
± gives the expanded uncertainty stated by the source.

Conditions: 298.15 K; 101.33 kPa; Liquid; Vibrating tube method

CCCCCC[N+](C)(C)CCO.F[B-](F)(F)F [hexyl(2-hydroxyethyl)dimethylammonium tetrafluoroborate]
mass density: 1123.6 ± 6.9 kg/m3
